Test results published in ChEMBL document CHEMBL1152560, “Substituted 2-arylbenzothiazoles as kinase inhibitors: hit-to-lead optimization” (Bioorg Med Chem, 2009).

Assays:
[1] = target: Casein kinase I isoform gamma-1 (Homo sapiens) (UniProt Q9HCP0); test: Residual activity of CK1gamma1 at 0.1 uM by microplate scintillation counting
[2] = target: G protein-coupled receptor kinase 5 (Homo sapiens) (UniProt P34947); test: Residual activity of GRK5 at 1 uM by microplate scintillation counting
[3] = target: Serine/threonine-protein kinase PAK 6 (Homo sapiens) (UniProt Q9NQU5); test: Residual activity of PAK6 at 1 uM by microplate scintillation counting
[4] = target: Dual specificity tyrosine-phosphorylation-regulated kinase 1B (Homo sapiens) (UniProt Q9Y463); test: Residual activity of DYRK1B at 10 uM by microplate scintillation counting
[5] = target: CDK3/cyclin E (Homo sapiens) (UniProt P24864+O96020+Q00526); test: Residual activity of CDK3/Cyclin E at 10 uM by microplate scintillation counting; format: protein-complex assay
[6] = target: T1, Activin receptor type-1B (Homo sapiens) (UniProt P36896); test: Residual activity of ACVR1B at 1 uM by microplate scintillation counting
T1 sequence (whole entry): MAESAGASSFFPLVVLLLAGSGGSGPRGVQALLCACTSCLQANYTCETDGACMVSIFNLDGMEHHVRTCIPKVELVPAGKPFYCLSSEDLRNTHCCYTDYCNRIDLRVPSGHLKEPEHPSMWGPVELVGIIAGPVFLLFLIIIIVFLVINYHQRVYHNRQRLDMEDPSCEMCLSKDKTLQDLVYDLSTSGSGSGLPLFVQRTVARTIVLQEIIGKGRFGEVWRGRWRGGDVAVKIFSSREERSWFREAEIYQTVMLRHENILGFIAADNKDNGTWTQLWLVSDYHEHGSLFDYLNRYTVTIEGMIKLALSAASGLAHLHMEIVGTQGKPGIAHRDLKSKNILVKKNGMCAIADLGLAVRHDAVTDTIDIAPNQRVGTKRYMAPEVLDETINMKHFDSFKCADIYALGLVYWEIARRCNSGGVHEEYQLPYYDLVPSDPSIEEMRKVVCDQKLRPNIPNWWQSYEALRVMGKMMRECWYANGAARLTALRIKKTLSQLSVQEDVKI

[7] = target: G protein-coupled receptor kinase 4 (Homo sapiens) (UniProt P32298); test: Residual activity of GRK4 at 1 uM by microplate scintillation counting
[8] = target: T2, Serine/threonine-protein kinase Nek11 (Homo sapiens) (UniProt Q8NG66); test: Residual activity of NEK11 at 0.1 uM by microplate scintillation counting
T2 sequence (whole entry): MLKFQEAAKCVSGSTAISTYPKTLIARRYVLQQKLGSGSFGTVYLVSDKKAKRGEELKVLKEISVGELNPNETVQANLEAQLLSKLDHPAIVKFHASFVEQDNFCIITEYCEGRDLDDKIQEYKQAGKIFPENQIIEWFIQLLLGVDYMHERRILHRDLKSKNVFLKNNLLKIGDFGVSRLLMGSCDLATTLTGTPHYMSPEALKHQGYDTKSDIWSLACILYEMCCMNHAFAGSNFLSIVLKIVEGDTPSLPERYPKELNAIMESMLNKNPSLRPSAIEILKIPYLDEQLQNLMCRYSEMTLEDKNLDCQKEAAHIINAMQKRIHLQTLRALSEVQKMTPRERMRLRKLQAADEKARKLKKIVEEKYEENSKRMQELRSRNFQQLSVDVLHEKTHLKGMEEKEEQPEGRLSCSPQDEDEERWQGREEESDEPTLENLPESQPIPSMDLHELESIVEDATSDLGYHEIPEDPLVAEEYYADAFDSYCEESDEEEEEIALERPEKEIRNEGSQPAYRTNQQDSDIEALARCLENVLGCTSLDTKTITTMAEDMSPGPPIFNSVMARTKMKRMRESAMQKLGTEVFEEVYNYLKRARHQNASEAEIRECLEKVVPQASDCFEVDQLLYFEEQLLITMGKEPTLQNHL

[9] = target: Receptor-interacting serine/threonine-protein kinase 2 (Homo sapiens) (UniProt O43353); test: Residual activity of RIPK2 at 0.1 uM by microplate scintillation counting
[10] = target: MAP/microtubule affinity-regulating kinase 3 (Homo sapiens) (UniProt P27448); test: Residual activity of MARK3 at 10 uM by microplate scintillation counting
[11] = target: Vascular endothelial growth factor receptor 3 (Homo sapiens, UniProt P35916); test: Residual activity of VEGFR3 at 10 uM by microplate scintillation counting
[12] = target: T3, Serine/threonine-protein kinase Nek3 (Homo sapiens) (UniProt P51956); test: Residual activity of NEK3 at 10 uM by microplate scintillation counting
T3 sequence (whole entry): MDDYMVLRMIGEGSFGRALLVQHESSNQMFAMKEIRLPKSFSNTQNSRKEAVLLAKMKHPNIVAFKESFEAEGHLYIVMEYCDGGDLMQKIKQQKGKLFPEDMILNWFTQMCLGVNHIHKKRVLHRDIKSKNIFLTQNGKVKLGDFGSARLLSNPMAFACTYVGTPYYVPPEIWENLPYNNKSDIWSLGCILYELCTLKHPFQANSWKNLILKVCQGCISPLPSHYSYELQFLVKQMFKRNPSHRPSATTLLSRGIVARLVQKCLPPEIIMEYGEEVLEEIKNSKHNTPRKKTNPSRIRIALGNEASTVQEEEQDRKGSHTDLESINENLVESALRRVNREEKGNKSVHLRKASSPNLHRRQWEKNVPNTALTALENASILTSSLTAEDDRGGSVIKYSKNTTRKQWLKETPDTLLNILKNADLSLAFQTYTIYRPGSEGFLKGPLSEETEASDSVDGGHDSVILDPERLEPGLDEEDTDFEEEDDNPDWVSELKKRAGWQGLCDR

[13] = target: G protein-coupled receptor kinase 4 (Homo sapiens) (UniProt P32298); test: Residual activity of GRK4 at 10 uM by microplate scintillation counting
[14] = target: Mitogen-activated protein kinase kinase kinase kinase 4 (Homo sapiens) (UniProt O95819); test: Residual activity of MAP4K4 at 10 uM by microplate scintillation counting
Mitogen-activated protein kinase kinase kinase kinase 4 (Homo sapiens), sequence (O95819 2-1239 limits assumed): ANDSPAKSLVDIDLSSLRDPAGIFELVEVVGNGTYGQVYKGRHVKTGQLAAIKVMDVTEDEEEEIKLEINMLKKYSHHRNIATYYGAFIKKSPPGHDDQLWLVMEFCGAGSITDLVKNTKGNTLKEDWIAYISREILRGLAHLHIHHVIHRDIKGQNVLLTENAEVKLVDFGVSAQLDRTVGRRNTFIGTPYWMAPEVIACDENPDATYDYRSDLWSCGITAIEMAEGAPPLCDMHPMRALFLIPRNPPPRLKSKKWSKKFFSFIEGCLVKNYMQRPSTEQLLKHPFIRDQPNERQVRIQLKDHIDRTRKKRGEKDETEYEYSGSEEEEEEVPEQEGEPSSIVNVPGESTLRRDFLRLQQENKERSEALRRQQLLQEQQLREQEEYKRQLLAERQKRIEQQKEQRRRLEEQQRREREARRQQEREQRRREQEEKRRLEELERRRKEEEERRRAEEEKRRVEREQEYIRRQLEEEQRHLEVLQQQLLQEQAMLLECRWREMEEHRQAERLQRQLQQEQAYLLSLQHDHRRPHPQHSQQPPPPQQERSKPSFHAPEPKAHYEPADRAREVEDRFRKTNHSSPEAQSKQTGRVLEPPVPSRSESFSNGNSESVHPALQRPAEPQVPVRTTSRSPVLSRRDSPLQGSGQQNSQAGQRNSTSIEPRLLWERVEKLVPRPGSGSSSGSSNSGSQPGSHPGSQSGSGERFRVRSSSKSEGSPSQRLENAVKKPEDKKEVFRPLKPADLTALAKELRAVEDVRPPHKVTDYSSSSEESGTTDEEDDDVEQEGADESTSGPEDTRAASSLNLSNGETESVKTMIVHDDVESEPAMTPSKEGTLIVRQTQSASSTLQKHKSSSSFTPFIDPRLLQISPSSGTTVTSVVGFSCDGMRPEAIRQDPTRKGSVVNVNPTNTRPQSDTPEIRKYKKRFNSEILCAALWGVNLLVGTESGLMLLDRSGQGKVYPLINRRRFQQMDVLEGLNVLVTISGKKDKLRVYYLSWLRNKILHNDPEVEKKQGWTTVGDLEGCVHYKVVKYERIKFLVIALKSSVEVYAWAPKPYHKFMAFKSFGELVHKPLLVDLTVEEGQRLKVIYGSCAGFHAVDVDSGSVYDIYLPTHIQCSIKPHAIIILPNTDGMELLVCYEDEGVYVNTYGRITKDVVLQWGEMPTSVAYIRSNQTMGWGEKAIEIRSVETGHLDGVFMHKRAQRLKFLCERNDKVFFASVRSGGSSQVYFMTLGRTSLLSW

CDK3/cyclin E (Homo sapiens), sequence (O96020 whole entry, looked up): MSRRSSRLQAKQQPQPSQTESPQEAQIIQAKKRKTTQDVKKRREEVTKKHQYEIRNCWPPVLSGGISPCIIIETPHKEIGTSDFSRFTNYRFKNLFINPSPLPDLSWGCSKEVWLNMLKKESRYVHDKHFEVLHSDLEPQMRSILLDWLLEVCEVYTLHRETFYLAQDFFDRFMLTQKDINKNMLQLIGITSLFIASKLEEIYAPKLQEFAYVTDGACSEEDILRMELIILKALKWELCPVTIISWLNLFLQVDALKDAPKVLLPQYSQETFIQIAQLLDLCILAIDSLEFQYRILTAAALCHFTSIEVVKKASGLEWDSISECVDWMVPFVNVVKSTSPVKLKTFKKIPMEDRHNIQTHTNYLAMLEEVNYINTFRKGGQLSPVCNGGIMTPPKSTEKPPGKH
CDK3/cyclin E (Homo sapiens), sequence (P24864 whole entry, looked up): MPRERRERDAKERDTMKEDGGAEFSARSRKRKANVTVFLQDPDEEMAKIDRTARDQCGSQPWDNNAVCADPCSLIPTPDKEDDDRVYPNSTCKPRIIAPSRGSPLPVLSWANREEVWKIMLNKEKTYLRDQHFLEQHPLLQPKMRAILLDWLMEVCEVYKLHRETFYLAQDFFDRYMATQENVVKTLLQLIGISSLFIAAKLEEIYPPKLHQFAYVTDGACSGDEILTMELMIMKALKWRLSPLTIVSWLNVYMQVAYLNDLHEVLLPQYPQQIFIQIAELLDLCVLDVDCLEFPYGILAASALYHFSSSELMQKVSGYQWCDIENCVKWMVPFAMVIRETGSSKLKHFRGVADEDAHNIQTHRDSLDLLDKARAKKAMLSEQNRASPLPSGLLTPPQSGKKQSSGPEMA
CDK3/cyclin E (Homo sapiens), sequence (Q00526 whole entry, looked up): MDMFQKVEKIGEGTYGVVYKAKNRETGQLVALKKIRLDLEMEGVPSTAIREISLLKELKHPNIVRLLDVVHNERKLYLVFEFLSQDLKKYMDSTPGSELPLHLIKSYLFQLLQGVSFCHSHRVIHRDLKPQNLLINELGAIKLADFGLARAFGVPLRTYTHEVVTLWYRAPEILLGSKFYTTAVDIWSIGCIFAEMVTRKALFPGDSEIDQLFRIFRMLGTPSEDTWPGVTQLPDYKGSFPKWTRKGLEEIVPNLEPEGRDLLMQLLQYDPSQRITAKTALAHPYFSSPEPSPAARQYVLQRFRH
G protein-coupled receptor kinase 4 (Homo sapiens), sequence (P32298 whole entry, looked up): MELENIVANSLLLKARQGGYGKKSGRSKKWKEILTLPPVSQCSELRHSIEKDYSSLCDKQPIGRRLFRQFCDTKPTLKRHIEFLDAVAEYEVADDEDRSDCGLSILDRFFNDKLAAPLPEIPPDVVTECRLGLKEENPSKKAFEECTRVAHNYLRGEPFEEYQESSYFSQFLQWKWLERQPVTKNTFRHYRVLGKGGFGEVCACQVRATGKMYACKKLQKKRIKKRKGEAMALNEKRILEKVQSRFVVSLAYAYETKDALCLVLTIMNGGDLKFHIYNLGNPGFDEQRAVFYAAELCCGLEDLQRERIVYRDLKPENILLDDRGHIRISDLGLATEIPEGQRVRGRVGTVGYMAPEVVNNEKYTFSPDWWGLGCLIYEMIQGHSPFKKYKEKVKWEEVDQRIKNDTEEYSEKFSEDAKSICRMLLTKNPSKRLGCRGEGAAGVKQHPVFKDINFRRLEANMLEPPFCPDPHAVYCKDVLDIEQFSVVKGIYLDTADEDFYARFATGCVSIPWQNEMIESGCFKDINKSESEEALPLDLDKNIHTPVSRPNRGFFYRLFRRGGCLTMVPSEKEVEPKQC
Receptor-interacting serine/threonine-protein kinase 2 (Homo sapiens), sequence (O43353 whole entry): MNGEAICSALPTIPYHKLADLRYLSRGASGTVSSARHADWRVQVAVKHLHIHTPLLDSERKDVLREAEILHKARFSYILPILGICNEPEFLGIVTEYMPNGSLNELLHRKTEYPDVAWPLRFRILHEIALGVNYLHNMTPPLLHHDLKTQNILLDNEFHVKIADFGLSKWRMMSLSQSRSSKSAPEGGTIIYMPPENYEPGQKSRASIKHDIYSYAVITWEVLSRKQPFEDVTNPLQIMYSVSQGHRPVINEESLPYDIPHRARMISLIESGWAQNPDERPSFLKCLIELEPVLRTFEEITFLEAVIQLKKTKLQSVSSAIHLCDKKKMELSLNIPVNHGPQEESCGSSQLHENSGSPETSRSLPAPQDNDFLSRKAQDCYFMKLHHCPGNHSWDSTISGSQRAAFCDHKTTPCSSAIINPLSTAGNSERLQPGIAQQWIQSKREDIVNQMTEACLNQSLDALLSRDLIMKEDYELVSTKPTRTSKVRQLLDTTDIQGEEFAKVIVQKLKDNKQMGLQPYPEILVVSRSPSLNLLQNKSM
Dual specificity tyrosine-phosphorylation-regulated kinase 1B (Homo sapiens), sequence (Q9Y463 whole entry, looked up): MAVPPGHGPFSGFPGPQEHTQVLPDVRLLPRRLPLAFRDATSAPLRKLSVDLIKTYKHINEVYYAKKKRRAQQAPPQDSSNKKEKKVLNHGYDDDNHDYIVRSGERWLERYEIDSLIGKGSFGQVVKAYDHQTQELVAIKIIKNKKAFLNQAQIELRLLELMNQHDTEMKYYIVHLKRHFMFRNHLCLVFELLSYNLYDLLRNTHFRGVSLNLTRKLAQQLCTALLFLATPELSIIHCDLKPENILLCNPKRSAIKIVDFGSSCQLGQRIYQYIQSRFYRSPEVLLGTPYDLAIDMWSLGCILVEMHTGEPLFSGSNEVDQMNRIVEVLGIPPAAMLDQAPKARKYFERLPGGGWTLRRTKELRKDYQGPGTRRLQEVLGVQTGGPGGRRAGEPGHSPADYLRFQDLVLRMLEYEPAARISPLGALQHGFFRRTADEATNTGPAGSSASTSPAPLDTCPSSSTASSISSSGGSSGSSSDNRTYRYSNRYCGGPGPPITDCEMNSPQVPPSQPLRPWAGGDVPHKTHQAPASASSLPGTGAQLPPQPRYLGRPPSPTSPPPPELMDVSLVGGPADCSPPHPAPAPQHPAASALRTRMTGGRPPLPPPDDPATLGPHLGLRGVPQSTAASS
Serine/threonine-protein kinase PAK 6 (Homo sapiens), sequence (Q9NQU5 whole entry, looked up): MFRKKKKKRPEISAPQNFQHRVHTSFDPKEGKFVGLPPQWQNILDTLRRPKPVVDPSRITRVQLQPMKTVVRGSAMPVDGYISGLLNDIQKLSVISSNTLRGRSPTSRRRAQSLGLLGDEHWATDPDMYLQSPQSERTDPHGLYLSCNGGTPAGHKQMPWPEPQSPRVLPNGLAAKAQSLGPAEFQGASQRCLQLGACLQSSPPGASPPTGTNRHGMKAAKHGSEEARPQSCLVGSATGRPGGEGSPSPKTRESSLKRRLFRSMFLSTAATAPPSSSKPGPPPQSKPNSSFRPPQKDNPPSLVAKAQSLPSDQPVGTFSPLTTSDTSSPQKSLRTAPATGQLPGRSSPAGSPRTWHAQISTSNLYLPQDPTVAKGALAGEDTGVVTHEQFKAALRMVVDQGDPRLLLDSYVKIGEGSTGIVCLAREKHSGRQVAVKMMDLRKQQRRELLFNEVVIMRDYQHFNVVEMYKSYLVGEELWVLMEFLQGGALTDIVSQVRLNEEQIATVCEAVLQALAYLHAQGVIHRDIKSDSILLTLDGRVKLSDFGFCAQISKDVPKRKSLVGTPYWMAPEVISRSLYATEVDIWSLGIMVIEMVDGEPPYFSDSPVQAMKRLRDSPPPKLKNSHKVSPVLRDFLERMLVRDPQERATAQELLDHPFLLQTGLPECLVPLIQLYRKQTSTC

Structure (SMILES)	residual activity [1]	residual activity [2]	residual activity [3]	residual activity [4]	residual activity [5]	residual activity [6]	residual activity [7]	residual activity [8]	residual activity [9]	residual activity [10]	residual activity [11]	residual activity [12]	residual activity [13]	residual activity [14]
COc1cc2c(Oc3ccc(-c4nc5ccccc5s4)cc3)ncnc2cc1OCCCN1CCN(C)CC1	102%	87%	74%	224%	130%	85%	94%	95%	78%	107%	4%	145%	171%	101%
COc1cc2c(Oc3ccc(-c4nc5ccccc5s4)cc3)ncnc2cc1OCCCN1CCCC1	84%	89%	109%	136%	113%	96%	97%	103%	79%	108%	6%	154%	159%	76%
COc1cc2c(Oc3ccc(-c4nc5ccccc5s4)cc3F)ncnc2cc1OCCCN1CCN(C)CC1	100%	90%	90%	194%	119%	89%	106%	94%	72%	104%	4%	132%	154%	96%
